This note sets out measurements from ChEMBL document CHEMBL1201862, “PubChem BioAssay data set” (2004).

Assay [1] can be described thus: viability of uninfected HEp-2 cells – cell-based, HTS, cytotoxicity control for RSV inhibitor project, dose response (AID 2410). Conditions: human respiratory syncytial virus. In kind it is functional.
Assay [2] deals with T1, Corticotropin-releasing factor receptor 2/Corticotropin-releasing factor-binding protein (Homo sapiens, UniProt P24387+Q13324).
T1 sequence (Q13324 whole entry): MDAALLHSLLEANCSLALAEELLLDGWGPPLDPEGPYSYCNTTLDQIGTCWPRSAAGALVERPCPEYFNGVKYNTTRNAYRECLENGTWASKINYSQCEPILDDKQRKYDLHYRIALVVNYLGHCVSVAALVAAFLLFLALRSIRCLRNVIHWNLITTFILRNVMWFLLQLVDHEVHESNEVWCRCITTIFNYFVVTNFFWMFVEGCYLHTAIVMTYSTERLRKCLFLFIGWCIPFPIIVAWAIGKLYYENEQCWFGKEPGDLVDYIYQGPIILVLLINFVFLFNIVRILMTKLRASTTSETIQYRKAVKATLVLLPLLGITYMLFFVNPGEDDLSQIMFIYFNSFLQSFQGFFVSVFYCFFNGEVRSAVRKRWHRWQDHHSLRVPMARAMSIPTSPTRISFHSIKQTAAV
T1 sequence (P24387 whole entry): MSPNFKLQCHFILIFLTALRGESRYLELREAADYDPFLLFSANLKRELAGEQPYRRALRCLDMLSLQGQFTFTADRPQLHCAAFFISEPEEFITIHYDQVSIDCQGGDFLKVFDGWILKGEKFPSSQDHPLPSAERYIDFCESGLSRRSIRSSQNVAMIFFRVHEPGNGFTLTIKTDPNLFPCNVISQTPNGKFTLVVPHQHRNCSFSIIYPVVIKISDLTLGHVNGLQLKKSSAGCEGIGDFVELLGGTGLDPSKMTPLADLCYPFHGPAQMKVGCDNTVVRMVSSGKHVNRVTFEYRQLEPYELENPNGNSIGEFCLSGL
Description: activators of CRF receptor 2 with binding protein – uHTS hits, confirmation (AID 602473). The assay is classed as functional. The settings on record: read-out: EC50_Mean.

In the next assay the target is T2, Cytochrome P450 1A2 (Homo sapiens, UniProt P05177).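 Further: PubChem cytochrome P450 panel assay, CYP1A2 panel member.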
T2 sequence (P05177 whole entry): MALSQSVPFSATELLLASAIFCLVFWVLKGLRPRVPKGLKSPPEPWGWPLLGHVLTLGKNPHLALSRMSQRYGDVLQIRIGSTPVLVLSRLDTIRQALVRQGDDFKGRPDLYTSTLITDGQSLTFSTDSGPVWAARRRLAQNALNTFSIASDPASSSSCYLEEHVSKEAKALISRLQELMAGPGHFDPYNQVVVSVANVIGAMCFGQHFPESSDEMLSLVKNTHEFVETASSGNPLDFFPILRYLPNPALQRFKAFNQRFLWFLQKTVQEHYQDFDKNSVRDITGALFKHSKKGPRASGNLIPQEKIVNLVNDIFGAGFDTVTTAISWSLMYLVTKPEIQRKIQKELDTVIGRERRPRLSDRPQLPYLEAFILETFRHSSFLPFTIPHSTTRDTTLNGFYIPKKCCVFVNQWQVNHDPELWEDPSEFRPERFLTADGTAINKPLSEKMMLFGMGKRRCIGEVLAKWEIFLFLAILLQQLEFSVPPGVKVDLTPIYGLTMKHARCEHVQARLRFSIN

The next assay has as its target Cytochrome P450 2C9 (Homo sapiens, UniProt P11712).
The target of assay [3] is T3, Replicative DNA helicase DnaB (Mycobacterium tuberculosis, UniProt P9WMR3).
T3 sequence (P9WMR3 whole entry): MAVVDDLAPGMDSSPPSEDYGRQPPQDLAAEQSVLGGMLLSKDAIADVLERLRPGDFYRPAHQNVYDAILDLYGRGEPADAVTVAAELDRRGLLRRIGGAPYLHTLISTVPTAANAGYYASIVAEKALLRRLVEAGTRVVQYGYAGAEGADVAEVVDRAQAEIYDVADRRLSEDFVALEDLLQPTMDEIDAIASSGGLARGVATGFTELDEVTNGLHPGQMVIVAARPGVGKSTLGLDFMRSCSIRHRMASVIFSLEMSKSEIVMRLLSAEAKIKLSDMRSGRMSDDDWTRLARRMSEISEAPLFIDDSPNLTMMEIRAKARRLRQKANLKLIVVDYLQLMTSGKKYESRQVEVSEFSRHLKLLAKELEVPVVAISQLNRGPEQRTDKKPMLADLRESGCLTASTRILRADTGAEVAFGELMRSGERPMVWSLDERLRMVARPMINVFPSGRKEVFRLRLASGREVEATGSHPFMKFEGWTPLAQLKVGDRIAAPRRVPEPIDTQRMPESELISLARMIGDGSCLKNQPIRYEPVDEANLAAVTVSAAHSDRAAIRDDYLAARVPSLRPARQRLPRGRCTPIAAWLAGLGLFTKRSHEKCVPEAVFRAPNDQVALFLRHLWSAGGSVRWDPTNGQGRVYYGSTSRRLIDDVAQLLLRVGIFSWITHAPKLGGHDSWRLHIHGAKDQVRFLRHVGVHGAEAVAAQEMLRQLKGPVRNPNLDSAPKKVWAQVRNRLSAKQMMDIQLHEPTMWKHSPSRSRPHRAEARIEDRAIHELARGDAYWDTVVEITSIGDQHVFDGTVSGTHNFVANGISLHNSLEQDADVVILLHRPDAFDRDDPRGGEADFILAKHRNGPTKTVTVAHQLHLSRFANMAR
Put plainly: DnaB intein splicing inhibitors, dose response, biochemical, cell-free fluorescence (AID 449749). The assay is classed as functional.

A further assay has as its target T4, Protein RecA (Mycobacterium tuberculosis, UniProt P9WHJ3).
T4 sequence (P9WHJ3 whole entry): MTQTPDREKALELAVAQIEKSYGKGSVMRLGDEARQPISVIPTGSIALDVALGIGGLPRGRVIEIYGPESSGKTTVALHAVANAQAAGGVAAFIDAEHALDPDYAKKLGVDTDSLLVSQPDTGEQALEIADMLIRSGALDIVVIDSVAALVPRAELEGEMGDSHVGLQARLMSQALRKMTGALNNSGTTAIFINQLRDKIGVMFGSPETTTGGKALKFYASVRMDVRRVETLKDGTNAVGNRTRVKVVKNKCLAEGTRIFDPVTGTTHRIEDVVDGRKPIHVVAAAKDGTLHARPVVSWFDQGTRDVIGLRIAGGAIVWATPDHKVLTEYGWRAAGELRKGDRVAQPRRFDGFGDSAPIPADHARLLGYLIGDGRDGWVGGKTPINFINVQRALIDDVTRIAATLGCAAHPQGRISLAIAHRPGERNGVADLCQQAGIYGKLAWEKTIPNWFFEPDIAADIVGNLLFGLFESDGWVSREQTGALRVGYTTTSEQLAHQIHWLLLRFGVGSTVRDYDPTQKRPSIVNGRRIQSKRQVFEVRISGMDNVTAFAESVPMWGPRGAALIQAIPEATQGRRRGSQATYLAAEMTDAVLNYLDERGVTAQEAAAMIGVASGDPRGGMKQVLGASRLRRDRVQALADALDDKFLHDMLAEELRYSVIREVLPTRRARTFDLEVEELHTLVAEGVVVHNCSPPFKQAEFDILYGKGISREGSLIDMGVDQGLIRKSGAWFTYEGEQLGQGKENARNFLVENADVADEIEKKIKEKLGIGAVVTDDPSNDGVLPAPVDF
Put plainly: Fluorescence Cell-Free Homogeneous Dose Retest to Identify Inhibitors of RecA-Intein Splicing Activity. [Related pubchem assays (depositor defined):AID2097, AID2223, AID489010, AID492950]. The assay is classed as functional.

Assay [4] has as its target T5, Rac GTPase-activating protein 1 (Homo sapiens, UniProt Q9H0H5).
T5 sequence (Q9H0H5 whole entry): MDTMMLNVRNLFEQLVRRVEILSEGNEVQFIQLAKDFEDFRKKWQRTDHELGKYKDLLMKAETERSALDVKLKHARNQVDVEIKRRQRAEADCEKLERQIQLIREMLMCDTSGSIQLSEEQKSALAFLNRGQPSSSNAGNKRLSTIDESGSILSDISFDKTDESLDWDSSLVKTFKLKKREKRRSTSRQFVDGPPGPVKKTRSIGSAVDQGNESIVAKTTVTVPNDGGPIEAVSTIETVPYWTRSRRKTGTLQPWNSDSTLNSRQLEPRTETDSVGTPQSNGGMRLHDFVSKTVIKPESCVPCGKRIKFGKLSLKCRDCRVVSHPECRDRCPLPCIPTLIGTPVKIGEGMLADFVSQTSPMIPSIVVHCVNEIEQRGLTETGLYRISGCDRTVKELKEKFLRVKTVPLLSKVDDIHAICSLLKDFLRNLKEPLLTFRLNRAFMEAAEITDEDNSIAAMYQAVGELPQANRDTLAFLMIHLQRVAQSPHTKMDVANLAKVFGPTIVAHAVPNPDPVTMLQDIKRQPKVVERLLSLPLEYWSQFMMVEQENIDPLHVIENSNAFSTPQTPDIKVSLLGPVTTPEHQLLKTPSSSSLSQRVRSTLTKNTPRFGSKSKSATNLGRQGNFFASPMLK
Description: blockers of MgcRacGAP-driven Rac1 GTP hydrolysis – biochemical, ADP Hunter fluorescence, primary and confirmatory, confirmation (AID 624330). In kind it is functional.

Assay [5] has as its target T6, RNA-binding protein pos-1 (Caenorhabditis elegans, UniProt G5EF15).
T6 sequence (G5EF15 whole entry): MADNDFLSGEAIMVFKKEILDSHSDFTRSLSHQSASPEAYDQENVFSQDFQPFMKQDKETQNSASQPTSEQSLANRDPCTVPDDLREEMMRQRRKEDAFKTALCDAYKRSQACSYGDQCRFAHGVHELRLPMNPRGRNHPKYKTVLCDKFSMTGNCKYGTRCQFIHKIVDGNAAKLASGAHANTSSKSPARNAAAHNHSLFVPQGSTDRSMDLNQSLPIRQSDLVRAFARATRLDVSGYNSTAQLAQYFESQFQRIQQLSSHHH
Description: disruptors of C. elegans POS-1 RNA interaction – biochemical, fluorescence polarization, dose response (AID 1964).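 Further: purified POS-1 fused to maltose binding protein made in E. coli; potency of compounds blocking POS-1 binding to fluorescent RNA.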

Activity calls are given as the source filed them. Some results are limits rather than exact numbers.

Cytochrome P450 2C9, sequence (P11712 whole entry): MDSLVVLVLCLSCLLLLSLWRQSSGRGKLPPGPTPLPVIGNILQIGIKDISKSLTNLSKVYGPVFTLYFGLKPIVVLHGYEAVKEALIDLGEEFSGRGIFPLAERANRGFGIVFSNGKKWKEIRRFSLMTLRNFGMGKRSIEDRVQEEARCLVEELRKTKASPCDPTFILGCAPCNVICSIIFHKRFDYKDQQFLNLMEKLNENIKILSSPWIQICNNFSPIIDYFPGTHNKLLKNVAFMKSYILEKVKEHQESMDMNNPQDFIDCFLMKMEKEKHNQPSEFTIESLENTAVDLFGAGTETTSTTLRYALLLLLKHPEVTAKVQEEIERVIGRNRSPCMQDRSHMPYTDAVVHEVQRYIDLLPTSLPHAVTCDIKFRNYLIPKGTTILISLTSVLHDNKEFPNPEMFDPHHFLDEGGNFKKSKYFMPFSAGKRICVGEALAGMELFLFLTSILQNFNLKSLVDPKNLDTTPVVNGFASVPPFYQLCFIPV

Take `CCn1nc(C(=O)Nc2ccccc2N2CCCC2)c2ccccc2c1=O`: the CC50 in assay [1] is > 50 µM (active).

`Oc1ccc(C[C@H]2CNCCN2CCC23CC4CC(CC(C4)C2)C3)cc1`: the CC50 in assay [1] is 14.2 µM (active).

For the molecule `COc1ccc(/C(O)=C/c2nc3ccccc3n(-c3ccccc3)c2=O)cc1`, the EC50 in assay [2] was 7.85 µM (active).

As to `CCOc1cc(N(CC)CC)ccc1/C=C(/C#N)c1nc2ccccc2[nH]1`, in assay [1], the CC50 is 21.4 µM (active).

Take `CCOP(=O)(OCC)c1nc(/C=C/c2ccccc2)oc1NCc1ccccc1`: the figures for the AC50 on Cytochrome P450 1A2 and on Cytochrome P450 2C9 were 15.8 µM (inconclusive) and 4.47 µM (inconclusive), respectively.

Consider `CCCCc1ccc(-c2csc(/C(C#N)=C/c3ccc(C)o3)n2)cc1`, for which the concentration at half-maximal activity (AC50) is 2 µM (inconclusive) at Cytochrome P450 1A2 and 3.16 µM (inconclusive) at Cytochrome P450 2C9.

Take `Nc1ccc(S(=O)(=O)Nc2cnc3ccccc3n2)cc1` [SULFAQUINOXALINE SODIUM]: the concentration at half-maximal activity (AC50) on Cytochrome P450 2C9 was 10 µM (inconclusive).

As to `CCc1sc(C(=O)Nc2ccc3c(c2)OCCO3)cc1Br`, the CC50 in assay [1] is 10.7 µM (active).

Consider `CC(=O)N1CCc2ccc(S(=O)(=O)N3CCN(C)CC3)cc21`, for which, in assay [2], the EC50 is > 53 µM (inactive).

For `O=C(Nc1cccc(S(=O)(=O)N2CCCCC2)c1)c1ccccc1NS(=O)(=O)c1ccc(F)cc1`, the EC50 in assay [2] is > 53 µM (inactive).

In the case of `CCc1cc2c(O)ncnc2s1`, the AC50 at Cytochrome P450 1A2 is 20 µM (inconclusive); on Cytochrome P450 2C9 it was 28.2 µM (inconclusive).

Take `Cc1nc2sccn2c(=O)c1S(=O)(=O)Nc1cccc(Cl)c1C`: in assay [2], the EC50 is > 53 µM (inactive).

On to `Nc1ccc2[nH]c(CCCCc3nc4ccccc4[nH]3)nc2c1`, for which the AC50 in assay [3] was > 380 µM (inactive). Also, the EC50 on Protein RecA is 16.9 µM (active). Also, the IC50 in assay [4] was 57.3 µM (active).

As for `CCOc1ccc2nc(NC(=O)COc3ccc(N(C)S(=O)(=O)c4ccc(C)cc4)cc3)sc2c1`, in assay [1], the cytotoxic concentration (CC50) was 1.78 µM (active).

In the case of `CCOc1cc(C=C2C(=O)c3ccccc3C2=O)ccc1OCC(=O)Nc1ccc(C)cc1`, the EC50 in assay [2] is > 53 µM (inactive).

For `Cc1cc(C)c(NC(=O)C[S+]([O-])CC(=O)NCCCc2ccccc2)c(C)c1` (stereo not drawn), on Cytochrome P450 2C9, the half-maximal activity concentration (AC50) is 28.2 µM (inconclusive).

As for `C=CCn1c(=O)c2ccccc2n2c(SCC(=O)N3CCCc4ccccc43)nnc12`, in assay [2], the EC50 is > 53 µM (inactive).

For `COc1cc(OC)cc(C(=O)Nc2ccc(-c3nc4ccccc4o3)c(O)c2)c1`, the CC50 in assay [1] was 17.6 µM (active).

In the case of `CCN(CC)c1ccc(/C=N/c2sc3c(c2C#N)C2CCN3CC2)c(O)c1`, the half-maximal cytotoxic concentration (CC50) in assay [1] is 6.56 µM (active).

`O=C(O)[C@@H](S)[C@H](S)C(=O)O`: the concentration at half-maximal activity (AC50) at Cytochrome P450 2C9 was 3.98 µM (inconclusive).

For `COc1ncc2nc(-c3cccs3)c(=O)n(C)c2n1`, the AC50 at Cytochrome P450 2C9 is 12.6 µM (inconclusive).

For `O=C(CCCN1C(=O)c2cccc3cccc(c23)C1=O)N1CCN(Cc2ccc3c(c2)OCO3)CC1`, in assay [1], the CC50 was 43.7 µM (active).

For `Cc1cccc(N2C(=O)/C(=C/c3ccc(N4CCN(C)CC4)o3)C(=O)NC2=S)c1C`, the EC50 in assay [5] was > 300 µM (inconclusive).

In the case of `O=S(=O)(c1ccc2c(c1)OCCO2)N1CCN(c2cccc(Cl)c2)CC1`, the CC50 in assay [1] is 34.9 µM (active).

For `COC(=O)C1=C(c2ccc(C(C)=O)cc2)C[C@@H]2CC[C@H]1N2C(=O)NCc1ccc(C(F)(F)F)cc1`, in assay [2], the EC50 was 4.94 µM (active).

As for `Fc1ccc(Oc2nc(-c3ccccc3)nnc2C(F)(F)F)cc1`, the concentration at half-maximal activity (AC50) in assay [3] is 2.95 µM (active). On Protein RecA, the EC50 was 2.28 µM (active).

As for `COc1ccccc1CNC(=O)CCCn1nc(C)c2c(C)n(-c3ccc(C)cc3)nc2c1=O`, the cytotoxic concentration (CC50) in assay [1] is 32 µM (active).
